From patent US11925638B2, “Pharmaceutical composition comprising diamino heterocyclic carboxamide compound as active ingredient” (ASTELLAS PHARMA INC., priority 2014, dated 2024) come the findings set out here.

Assay [1] has as its system phosphorylated AXL in AXL/PC9 cells. The assay is described as follows: Western blot of phosphorylated AXL in AXL/PC9 cells. Type of assay: cell-based, human. As to conditions: compound A at 100 nM, phospho-AXL antibody. On the technique in general: A western blot detects proteins with antibodies after separation by electrophoresis.
Assay [2] concerns erlotinib-resistant HCC827 subcutaneous tumor. The assay is described as follows: Anti-tumor evaluation (in vivo), erlotinib-resistant HCC827 subcutaneous cancer-bearing mouse model. The following applies: erlotinib 12.5 mg/kg/day and/or compound A 30 mg/kg/day, QD, po; for tumor volume on the starting day of administration: baseline, measured the day before start.
Source text: HCC827 cells (EGFR mutation-positive lung cancer cell line) were subcutaneously implanted to a dorsal part of an immunodeficient mouse (CB17/Icr-Prkdcscid/CrlCrlj, male, 4-week-old (Charles River Laboratories Japan, Inc.)) to prepare HCC827 subcutaneous cancer-bearing mice.
Another assay relates to PC9 vec. cells. Kind of assay: Proliferation inhibition (in vitro), PC9 vec. control cells, CellTiter-Glo. As to conditions: Homo sapiens, 96 h, 4 days culture. It counts as cell-based. In general terms: In ATP-based viability assays light output follows the ATP content of the culture.

Procedure for PC9 vec. cells: The obtained PC9/AXL cells and PC9 vec. cells were inoculated into a 384-well plate, respectively, using an RPMI 1640 medium (Sigma). On the same day, a DMSO solution of the test compound depending on the test concentration or DMSO alone was added thereto, followed by culturing at 37° C. for 4 days in the presence of 5% CO2. Thereafter, the number of cells was measured using a cell count reagent (CellTiter-Glo™ Luminescent Cell Viability Assay (Promega)).

For the compound `CCc1nc(C(N)=O)c(Nc2ccc(N3CCC(N4CCN(C)CC4)CC3)c(OC)c2)nc1NC1CCOCC1` [compound A, 6-ethyl-3-({3-methoxy-4-[4-(4-methylpiperazin-1-yl)piperidin-1-yl]phenyl}amino)-5-(tetrahydro-2H-pyran-4-ylamino)pyrazine-2-carboxamide], the AXL phosphorylation result in assay [1] is “completely inhibited”. In assay [2], the “tumor volume on the starting day of administration” value came out at 339.2 mm^3, the tumor decreasing effect result is “did not show a tumor decreasing effect” and the “tumor volume after 12 days” value is on record as 739.2 mm^3.

In general, IC50 refers to the concentration at which inhibition is half-maximal. Take `C#Cc1cccc(Nc2ncnc3cc(OCCOC)c(OCCOC)cc23)c1` [erlotinib, reference compound]: the half-inhibitory concentration (IC50) in the assay with PC9 vec. cells stood at 108 nM. Besides, in assay [2], the “tumor volume on the starting day of administration” value worked out at 335.8 mm^3 and the tumor decreasing effect result is on record as “did not show a tumor decreasing effect”.
